# Literature values, collected in patent US20210315250A1, “COMBINATION BROAD-SPECTRUM ANTIVIRAL NATURAL EXTRACT SUPPLEMENTS” (priority 2020, published 2021).
# Tests used:
# [1] = molecular target: SARS-CoV 3CL (Severe acute respiratory syndrome coronavirus, UniProt P0C6X7)
# [2] = test system: SVS
# [3] = test system: HIV
# [4] = test system: HSV-1
# [5] = molecular target: ACE2 receptor (Homo sapiens, UniProt Q9BYF1)
# [6] = molecular target: viral S protein (Severe acute respiratory syndrome coronavirus 2, UniProt P0DTC2)
# [7] = test system: docking site for SARS-CoV-2
# [8] = test system: influenza
# ACE2 receptor, sequence (Q9BYF1 18-805): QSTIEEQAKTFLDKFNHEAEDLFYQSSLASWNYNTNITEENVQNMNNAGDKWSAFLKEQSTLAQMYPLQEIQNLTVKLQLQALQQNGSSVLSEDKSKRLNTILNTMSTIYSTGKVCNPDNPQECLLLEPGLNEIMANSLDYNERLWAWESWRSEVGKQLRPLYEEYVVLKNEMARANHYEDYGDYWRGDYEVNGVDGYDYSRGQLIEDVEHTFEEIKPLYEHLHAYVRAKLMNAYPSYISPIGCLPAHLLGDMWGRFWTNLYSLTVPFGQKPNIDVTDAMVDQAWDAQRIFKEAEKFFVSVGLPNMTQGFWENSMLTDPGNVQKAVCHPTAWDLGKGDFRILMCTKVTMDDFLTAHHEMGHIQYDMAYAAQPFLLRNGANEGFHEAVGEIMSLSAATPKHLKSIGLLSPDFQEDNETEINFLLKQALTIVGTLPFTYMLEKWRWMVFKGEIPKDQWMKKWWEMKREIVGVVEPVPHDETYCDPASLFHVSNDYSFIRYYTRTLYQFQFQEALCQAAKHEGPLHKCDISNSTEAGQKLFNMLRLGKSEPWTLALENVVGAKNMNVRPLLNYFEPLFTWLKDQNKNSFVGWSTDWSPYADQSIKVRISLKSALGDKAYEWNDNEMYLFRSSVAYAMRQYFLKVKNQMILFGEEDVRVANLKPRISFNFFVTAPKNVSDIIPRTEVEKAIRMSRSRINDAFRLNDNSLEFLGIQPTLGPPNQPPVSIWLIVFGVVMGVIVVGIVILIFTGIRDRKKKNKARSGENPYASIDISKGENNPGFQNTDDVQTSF
compound,measurement,setting,value
O=c1cc(-c2ccc(O)c(O)c2)oc2cc(O)cc(O)c12 [Luteolin],inhibition of the docking site for SARS-CoV 3CL,[1],inhibit
CCCCCCCCCCCCCC(=O)O [myristic acid],inhibition of SVS,[2],inhibit
same,inhibition of HIV,[3],inhibit
O=C1OC[C@H](Cc2ccc3c(c2)OCO3)/C1=C\c1ccc2c(c1)OCO2 [Savinin],inhibition of the docking site for SARS-CoV 3CL,[1],inhibit
C/C=C/c1ccc(OC)cc1 [Trans-anethole],inhibition of HSV-1,[4],inhibit
caryophyllene,inhibition of HSV-1,[4],inhibit
COc1cc(/C=C/C(=O)CC(=O)/C=C/c2ccc(O)c(OC)c2)ccc1O [Curcumin],interaction with ACE2 receptor docking site,[5],interact
same,interaction with viral S protein docking site,[6],interact
O=c1c(O)c(-c2cc(O)c(O)c(O)c2)oc2cc(O)cc(O)c12 [Myricetin],inhibition of the docking site for SARS-CoV-2,[7],inhibit
CC(=O)C=O [Methylglyoxal],"inhibition of viruses, in particular influenza",[8],inhibit
COc1ccc(-c2cc(=O)c3c(O)c(OC)c(O[C@@H]4O[C@H](CO[C@@H]5O[C@@H](C)[C@H](O)[C@@H](O)[C@H]5O)[C@@H](O)[C@H](O)[C@H]4O)cc3o2)cc1 [pectolinarin],binding to SARS-CoV 3CL,[1],bind
C[C@@H]1O[C@@H](O[C@H]2[C@H](Oc3cc(O)c4c(=O)cc(-c5ccc(O)cc5)oc4c3)O[C@H](CO)[C@@H](O)[C@@H]2O)[C@H](O)[C@H](O)[C@H]1O [rhoifolin],binding to SARS-CoV 3CL,[1],bind
O=c1c(O)c(-c2ccc(O)cc2)oc2c(O)c(O)cc(O)c12 [herbacetin],binding to SARS-CoV 3CL,[1],bind
